The values below come from patent US20190077856A1, “METHOD OF TREATING DISEASES USING KINASE MODULATORS” (Memorial Sloan Kettering Cancer Center, priority 2016, published 2019).

The test system of assay [1] is TPC1. In words: Surface HLA-A02 and HLA-ABC by flow cytometry (BB7, W6/32) after 72 hours. The format is cell-based, human. To be noted: different doses. The protocol:
(§1) FIG. 14A-FIG. 14C: TPC1 (a papillary thyroid cancer cell line) treated with AST487 increased HLA surface expression. FIG. 14A and FIG. 14B: TPC1 cells were seeded and treated with different doses of AST487 (a RET inhibitor). After 72 hours, cells were harvested and surface HLA-A02 and HLA-ABC were measured through flow cytometry with BB7 and W6/32 staining antibodies, respectively. FIG. 14C: After 24 hours of AST487 incubation, cells were lysed and a western blot was performed to show a decrease in pRET and pERK with AST487 treatment.
(§2) The effect of AST487, a RET inhibitor, on TPC1 (a papillary thyroid cancer cell line) was investigated. TPC1 cells were seeded and treated with different doses of AST487. After 72 hours, cells were harvested and surface HLA-A02 and HLA-ABC were measured through flow cytometry with BB7 and W6/32 staining antibodies, respectively (FIG. 14A-FIG. 14B).
In general terms: In flow cytometry, cells or beads pass a laser one at a time.

Assay [2] relates to pRET and pERK. The assay is described as follows: Western blot for pRET and pERK after 24 hours. The format is cell-based, human. To be noted: TPC1. The protocol:
as §1, §2
A general note: Immunoblotting shows a protein as a band on a membrane.

Assay [3] deals with TT cells. The assay is described as follows: Surface HLA-A02 and HLA-ABC by flow cytometry (BB7, W6/32) after 72 hours. The format is cell-based, human. The conditions noted are these: different doses. The protocol: FIG. 15A and FIG. 15B: TT cells were seeded and treated with different doses of AST487 (a RET inhibitor). After 72 hours, cells were harvested and surface HLA-A02 and HLA-ABC were measured through flow cytometry with BB7 and W6/32 staining antibodies, respectively. FIG. 15C: After 24 hours of AST487 incubation, cells were lysed and a western blot was performed. TT cells are derived from a medullary thyroid cancer that has a RET point mutation, as opposed to the TPC1 cells, which are derived from a papillary thyroid cancer and have a RET/PTC1 fusion.
The same analysis was performed in TT cells (a medullary thyroid cancer cell line). TT cells are derived from a medullary thyroid cancer that has a RET point mutation, as opposed to TPC1 cells, which are derived from a papillary thyroid cancer and have a RET/PTC1 fusion. TT cells were seeded and treated with different doses of AST487. After 72 hours, cells were harvested and surface HLA-A02 and HLA-ABC were measured through flow cytometry with BB7 and W6/32 staining antibodies, respectively (FIG. 15A-FIG. 15B). After 24 hours of AST487 incubation, cells were lysed and a western blot was performed (FIG. 15C).

The subject of assay [4] is TPC1. The assay is described as follows: qPCR of transcript levels of HLA and antigen processing machinery. The format is cell-based, human. To be noted: 24 or 48 hours. The protocol: Using qPCR, transcript levels of HLA and antigen processing machinery were measured after TPC1 cells were treated with AST487 for 24 (FIG. 17A) or 48 hours (FIG. 17B). Upregulation of mRNA levels for HLA and antigen processing machinery were seen.
Real-Time PCR: Total RNA was extracted using Qiagen RNA Easy Plus (Qiagen; #74134) after cells were treated for 48 hrs with indicated inhibitor. RNA was converted into cDNA using gScript™ cDNA SuperMix (Quanta Biosciences Gaithersburg, Md. USA). Real-time assays were conducted using TaqMan real-time probes. (Life Technlogies) for human HLA-A (Hs01058806_gl), B2M (Hs00187842_ml), TAP1 (Hs00388677_ml), TAP2 (Hs00241060_ml), and TBP (Hs00427620_ml) using 50 ng cDNA. For assessment of gene expression using RT-PCR PerfeCTa® FastMix® II (Quanta), reactions were carried out in triplicates using standard thermocycling conditions (2 minutes at 50° C., 10 minutes at 95° C., 40 cycles of 15 seconds at 95° C., and 1 minute at 60° C.). TBP was used as internal control and ΔΔCT method was used for relative mRNA calculations.
Next, using qPCR, transcript levels of HLA and antigen processing machinery were measured after TPC1 cells were treated with AST487 for 24 (FIG. 17, left panel) or 48 hours (FIG. 17, right panel). Upregulation of mRNA levels for HLA and antigen processing machinery were seen.

The test system of assay [5] is TPC1. In words: Binding of TCR mimic antibody ESK and ADCC (chromium release) with ESK-M. The format is cell-based, human. The protocol: FIG. 18A-FIG. 18B: AST487 increased cytolytic activity of TCRm antibody. FIG. 18A: TPC1 cells were treated with different doses of AST487 and binding of ESK (a TCR mimic monoclonal antibody specific for the WT1 RMF peptide/HLA-A02:01 complex) was measured. FIG. 18B: With increase of ESK binding in vitro, the effect on cytolytic activity of ESK was measured with an ADCC assay. TPC1 cells were treated with AST487 or DMSO for 72 hours and then incubated with chromium. Peripheral blood mononuclear cells (PBMCs), chromium labeled target cells, and ESK-M (or an isotype) were mixed and incubated for 5 hours. Varying effector to target ratios were used. Afterwards, chromium levels in the media were measured to determine percent specific lysis.
For FIG. 18A, TPC1 cells were treated with different doses of AST487 and binding of ESK (a TCR mimic monoclonal antibody specific for the WT1 RMF peptide/HLA-A02:01 complex) was measured. For FIG. 18B, with increase of ESK binding in vitro, the effect on cytolytic activity of ESK was measured with an antibody-dependent cell-mediated cytotoxicity (ADCC) assay. TPC1 cells were treated with AST487 or DMSO for 72 hours and then incubated with chromium. PBMCs, chromium labeled target cells, and ESK-M (or an isotype) were mixed and incubated for 5 hours. […] Afterwards, chromium levels in the media were measured to determine percent specific lysis.

Assay [6] relates to TPC1 cells. The assay is described as follows: In vivo treatment of subcutaneous TPC1 tumors, flow cytometry of tumor cells. Further details: species or system NRG mice. To be noted: 7 days of treatment. On the procedure:
FIG. 19A-FIG. 19B: AST487 treatment in vivo increased surface HLA expression levels. FIG. 19A: NRG mice were injected with TPC1 cells and treated with vehicle (control) or AST487. BB7 and W6/32 binding on TPC1 cells were measured, and are shown in FIG. 19A (normalized to vehicle-treated mice) for vehicle-treated, 10 mg/kg AST487-treated, and 35 mg/kg AST487-treated mice. […] PD-L1 levels were measured as binding to anti-PD-L1 antibody.
NRG mice (Jackson labs NOD-Rag 1 null IL2rgnull, NOD rag gamma) were injected with TPC1 cells subcutaneously, and then treated 4 weeks later with vehicle (phosphate buffered saline) or with AST487 (a RET inhibitor) at a dose of 10 mg/kg or 35 mg/kg. After 7 days of treatment, tumors were harvested, and tumor cells were assessed for binding to BB7 (a monoclonal antibody specific to HLA-A02) and binding to W6/32 (a monoclonal antibody specific to pan HLA-ABC). Tumor cells were GFP-labeled and were distinguished from stroma and normal cells by gating for GFP in flow cytometry. […] One mouse in the vehicle control group was excluded as an outlier with 99% confidence interval as determined by Q test. PD-L1 expression by the tumor was also assessed by measuring binding of anti-PD-L1 antibody.

Consider `CCN1CCN(Cc2ccc(NC(=O)Nc3ccc(Oc4cc(NC)ncn4)cc3)cc2C(F)(F)F)CC1` [AST487, 1-[4-[(4-ethylpiperazin-1-yl)methyl]-3-(trifluoromethyl)phenyl]-3-[4-[6-(methylamino)pyrimidin-4-yl]oxyphenyl]urea], for which, in assay [1], the “HLA class I surface expression” value was “increased”. Moreover, the “pRET and pERK” value in assay [2] is reported as “decrease”. Moreover, the “surface HLA-A” value in assay [3] is listed as “upregulated”. Moreover, the “mRNA levels for HLA and antigen processing machinery” value in assay [4] is recorded as “Upregulation”. The “cytolytic activity of TCRm antibody (ADCC, ESK-M)” value in assay [5] (72 hours AST487, then PBMCs and ESK-M 5 hours) is “increased”. The ESK binding entry in assay [5] (different doses) is given as “increase”. In assay [6] (10 mg/kg or 35 mg/kg), the “HLA-A02 expression (BB7 binding) on the surface of the tumor cells” value is recorded as “increased” and the “pan HLA-ABC expression (W6/32 binding) on the surface of the tumor cells” value is reported as “increased”. Also, the “expression of PD-L1 by the tumor” value in assay [6] (anti-PD-L1 antibody binding) is “did not change”.
